Measured values from PubChem BioAssay AID330 (DTP/NCI, 2004).
Several values for one entry are separate records, joined by “and”; a condition that tells them apart may be missing. Equal entries are not always repeated. Inconclusive results and toxic doses are left out. The calls were made as follows: active = survival T/C of 150% or more; inactive = T/C below 125% in these data.

Tested on: P388 leukemia ip, CD2F1 mice, survival T/C
Assay: NCI In Vivo Anticancer Drug Screen. Data for tumor model P388 Leukemia (intraperitoneal) in CD2F1 (CDF1) mice
Conditions: endpoint: median survival time, higher = longer survival
How it was run: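 Mice carrying the transplanted tumor received test compound or vehicle. Survival was recorded in each group, and the value is the treated-group measurement divided by that of the vehicle-treated control group.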

[1] = dose: 12.5 mg/kg/injection, schedule: Q01DX009 (ip), vehicle: Klucel (hydroxypropylcellulose) (HPC)
[2] = dose: 12.5 mg/kg/injection, schedule: Q01DX009 (ip), vehicle: saline with Tween-80
[3] = dose: 25.0 mg/kg/injection, schedule: Q01DX009 (ip), vehicle: Klucel (hydroxypropylcellulose) (HPC)
[4] = dose: 50.0 mg/kg/injection, schedule: Q01DX009 (ip), vehicle: Klucel (hydroxypropylcellulose) (HPC)
[5] = dose: 50.0 mg/kg/injection, schedule: Q01DX009 (ip), vehicle: saline with Tween-80
[6] = dose: 100.0 mg/kg/injection, schedule: Q01DX009 (ip), vehicle: Klucel (hydroxypropylcellulose) (HPC)
[7] = dose: 100.0 mg/kg/injection, schedule: Q01DX009 (ip), vehicle: saline with Tween-80
[8] = dose: 25.0 mg/kg/injection, schedule: Q01DX005 (ip), vehicle: Klucel (hydroxypropylcellulose) (HPC)
[9] = dose: 50.0 mg/kg/injection, schedule: Q01DX005 (ip), vehicle: Klucel (hydroxypropylcellulose) (HPC)
[10] = dose: 100.0 mg/kg/injection, schedule: Q01DX001 (ip), vehicle: saline
[11] = dose: 200.0 mg/kg/injection, schedule: Q01DX001 (ip), vehicle: saline
[12] = dose: 100.0 mg/kg/injection, schedule: Q04DX003 (ip), vehicle: saline with Tween-80
[13] = dose: 200.0 mg/kg/injection, schedule: Q04DX003 (ip), vehicle: saline with Tween-80
[14] = dose: 60.0 mg/kg/injection, schedule: Q01DX005 (ip), vehicle: saline with Tween-80
[15] = dose: 120.0 mg/kg/injection, schedule: Q01DX005 (ip), vehicle: saline with Tween-80
[16] = dose: 240.0 mg/kg/injection, schedule: Q01DX005 (ip), vehicle: saline with Tween-80
[17] = dose: 100.0 mg/kg/injection, schedule: Q01DX005 (ip), vehicle: Klucel (hydroxypropylcellulose) (HPC)
[18] = dose: 200.0 mg/kg/injection, schedule: Q01DX005 (ip), vehicle: Klucel (hydroxypropylcellulose) (HPC)
[19] = dose: 50.0 mg/kg/injection, schedule: Q01DX005 (ip), vehicle: saline with Tween-80
[20] = dose: 100.0 mg/kg/injection, schedule: Q01DX005 (ip), vehicle: saline with Tween-80
[21] = dose: 200.0 mg/kg/injection, schedule: Q01DX005 (ip), vehicle: saline with Tween-80

Measured: T/C

CO[C@H]1/C=C/O[C@@]2(C)Oc3c(C)c(O)c4c(O)c(c(/C=N/N5C(C)CN(Cc6ccc(C#N)cc6)CC5C)c(O)c4c3C2=O)NC(=O)/C(C)=C\C=C\[C@H](C)[C@H](O)[C@@H](C)[C@@H](O)[C@@H](C)[C@H](OC(C)=O)[C@@H]1C (some centres not stated)
inactive: [1] 93 % of control | [2] 107 % of control | [3] 87 % of control | dose: 25.0 mg/kg/injection, schedule: Q01DX009 (ip), vehicle: saline with Tween-80 92 % of control | [4] 86 % of control | [5] 100 % of control and 95 % of control | [6] 107 % of control | [7] 113 % of control | dose: 200.0 mg/kg/injection, schedule: Q01DX009 (ip), vehicle: Klucel (hydroxypropylcellulose) (HPC) 107 % of control

CCOC(=O)C(CCc1ccc(N(CCCl)CCCl)cc1)(NC(C)=O)C(=O)OCC
inactive: [1] 109 % of control | [3] 111 % of control | [4] 116 % of control

Cc1csc2c3ccccc3cc(=O)n12
inactive: dose: 12.5 mg/kg/injection, schedule: Q01DX005 (ip), vehicle: Klucel (hydroxypropylcellulose) (HPC) 95 % of control | [8] 99 % of control | [9] 100 % of control | dose: 100.0 mg/kg/injection, schedule: Q01DX001 (ip), vehicle: Klucel (hydroxypropylcellulose) (HPC) 98 % of control

COc1cccc2nncn12
inactive: dose: 50.0 mg/kg/injection, schedule: Q01DX001 (ip), vehicle: saline 100 % of control | [10] 100 % of control | [11] 100 % of control

CCCCCCOC(=O)Nc1nnc(SSC2=NN=CC2NC(=O)OCCCCCC)s1 (configuration not stated)
inactive: [10] 91 % of control | [11] 90 % of control | dose: 400.0 mg/kg/injection, schedule: Q01DX001 (ip), vehicle: saline 90 % of control

CC1=C(/C=C/C(C)=C/C=C/C(C)=C/C(=O)O)C(C)(C)CCC1
inactive: dose: 32.0 mg/kg/injection, schedule: Q01DX005 (ip), vehicle: saline with Tween-80 119 % of control | dose: 64.0 mg/kg/injection, schedule: Q01DX005 (ip), vehicle: saline with Tween-80 111 % of control | [12] 105 % of control | dose: 128.0 mg/kg/injection, schedule: Q01DX005 (ip), vehicle: saline with Tween-80 103 % of control | [13] 115 % of control

Cc1cc2[nH]c3c(C#N)c(O)c(C(C)C)c(=O)n3c2cc1C
inactive: [14] 103 % of control | [15] 100 % of control | [16] 94 % of control

COC(=O)NC1C(=O)OC(C2OC2(C)C)C1(C)C (configuration not stated)
inactive: [14] 101 % of control and 100 % of control | [15] 101 % of control and 99 % of control | [16] 100 % of control and 99 % of control

O=C1CS/C(=C/Cc2nc3ccccc3s2)N1
inactive: [14] 108 % of control | [15] 97 % of control | [16] 102 % of control

Cc1oc2c(C)c3oc(=O)cc(C)c3cc2c1CCl
inactive: dose: 12.5 mg/kg/injection, schedule: Q04DX002 (ip), vehicle: saline with Tween-80 114 % of control | dose: 25.0 mg/kg/injection, schedule: Q04DX002 (ip), vehicle: saline with Tween-80 123 % of control | dose: 400.0 mg/kg/injection, schedule: Q05DX002 (ip), vehicle: saline with Tween-80 98 % of control

CN(/N=C/c1ccc2c(c1)OCO2)C(=O)c1ccccc1N
inactive: [5] 108 % of control | [7] 114 % of control | dose: 200.0 mg/kg/injection, schedule: Q01DX009 (ip), vehicle: saline with Tween-80 116 % of control

CCCCCCCCCCCCCCSCCCCCCCCCCCCCC
inactive: [8] 100 % of control | [9] 99 % of control | [17] 92 % of control | [18] 92 % of control

O=C1CN(CCN2CCOCC2)CC(=O)N2Cc3ccccc3CN12
inactive: [19] 108 % of control | [20] 98 % of control | [21] 101 % of control

COC(=O)/C(O)=C(/O)C(=O)OC
inactive: [19] 99 % of control | [20] 100 % of control | [21] 99 % of control

NC(=O)C1CCCN1C(=O)C1CCCN(CCCCCCN2CCCC(C(=O)N3CCCC3C(N)=O)C2)C1 (configuration not stated)
inactive: dose: 60.0 mg/kg/injection, schedule: Q01DX005 (ip), vehicle: saline 105 % of control | dose: 120.0 mg/kg/injection, schedule: Q01DX005 (ip), vehicle: saline 98 % of control

C=C(C)C12CC(COC(=O)c3ccccc3)C34OC5(OC1C3C1OC1(COC(=O)CCCCCCCCCCCCCCC)C(O)C1(O)C(OC(=O)c3ccccc3)C(C)C(C(C)CCCCCCC5O)C14)O2 (configuration not stated)
inactive: dose: 12.5 micrograms/kg/injection, schedule: Q01DX009 (ip), vehicle: saline 103 % of control | dose: 25.0 micrograms/kg/injection, schedule: Q01DX009 (ip), vehicle: saline 103 % of control | dose: 50.0 micrograms/kg/injection, schedule: Q01DX009 (ip), vehicle: saline 99 % of control

CC(=O)Nc1ccc(N=NNc2ccccc2)cc1
inactive: dose: 3.12 mg/kg/injection, schedule: Q01DX001 (ip), vehicle: Klucel (hydroxypropylcellulose) (HPC) 100 % of control | dose: 6.25 mg/kg/injection, schedule: Q01DX001 (ip), vehicle: Klucel (hydroxypropylcellulose) (HPC) 93 % of control | dose: 12.5 mg/kg/injection, schedule: Q01DX001 (ip), vehicle: Klucel (hydroxypropylcellulose) (HPC) 99 % of control and 97 % of control

N=C(N)c1ccc(SCCCCCSc2ccc(C(=N)N)cc2)cc1
inactive: dose: 3.13 mg/kg/injection, schedule: Q01DX009 (ip), vehicle: saline with Tween-80 117 % of control | dose: 6.25 mg/kg/injection, schedule: Q01DX009 (ip), vehicle: saline with Tween-80 124 % of control | [2] 119 % of control

CC1(C)CC2(CC3(C1)SCCS3)OCCO2
inactive: [12] 98 % of control | [13] 99 % of control | dose: 400.0 mg/kg/injection, schedule: Q04DX003 (ip), vehicle: saline with Tween-80 97 % of control

N#C/C(=C\c1ccc([N+](=O)[O-])o1)[N+](=O)[O-]
inactive: dose: 50.0 mg/kg/injection, schedule: Q01DX009 (ip), vehicle: saline 103 % of control | dose: 100.0 mg/kg/injection, schedule: Q01DX009 (ip), vehicle: saline 93 % of control

O=C1CC(SC(=S)N2CCCCC2)C(=O)N1c1ccccc1 (configuration not stated)
inactive: dose: 100.0 mg/kg/injection, schedule: Q04DX002 (ip), vehicle: saline 105 % of control and 98 % of control | dose: 200.0 mg/kg/injection, schedule: Q04DX002 (ip), vehicle: saline 100 % of control and 109 % of control | dose: 400.0 mg/kg/injection, schedule: Q04DX002 (ip), vehicle: saline 100 % of control and 104 % of control

Nc1nc2c(ncn2C2OC(CO)C(O)C2O)c(=O)n1N (configuration not stated)
inactive: [1] 100 % of control and 102 % of control | [3] 103 % of control | [4] 101 % of control and 108 % of control | [6] 104 % of control and 113 % of control

Cc1ccc(S(=O)(=O)OCCOCCOc2ccc3ccccc3c2-c2c(OCCOS(=O)(=O)c3ccc(C)cc3)ccc3ccccc23)cc1
inactive: dose: 100.0 mg/kg/injection, schedule: Q01DX001 (ip), vehicle: saline with Tween-80 89 % of control | dose: 200.0 mg/kg/injection, schedule: Q01DX001 (ip), vehicle: saline with Tween-80 100 % of control

O=C(CCS(=O)O)c1cccs1
inactive: dose: 100.0 mg/kg/injection, schedule: Q04DX003 (ip), vehicle: saline 99 % of control | dose: 200.0 mg/kg/injection, schedule: Q04DX003 (ip), vehicle: saline 96 % of control | dose: 400.0 mg/kg/injection, schedule: Q04DX003 (ip), vehicle: saline 92 % of control

NC(=S)n1nc(-c2ccccc2)c(N=Nc2ccccc2Cl)c1-c1ccccc1
inactive: [19] 117 % of control | [20] 111 % of control | [21] 108 % of control

O=C(Nc1ccc(F)cc1F)Oc1cccc2cccnc12
inactive: [4] 114 % of control | [6] 112 % of control

CCOC(=O)c1c(C(=O)Nc2ccccc2)c(-c2ccccc2)n(NC(=O)c2cccc(Cl)c2)c1C
inactive: dose: 60.0 mg/kg/injection, schedule: Q01DX005 (ip), vehicle: Klucel (hydroxypropylcellulose) (HPC) 98 % of control | dose: 120.0 mg/kg/injection, schedule: Q01DX005 (ip), vehicle: Klucel (hydroxypropylcellulose) (HPC) 94 % of control

CC(C)(C)SC(=O)C1CC1
inactive: [12] 111 % of control | [13] 102 % of control

CC1(C)OC2COC3(C(=O)O)OC(C)(C)OC3C2O1 (configuration not stated)
inactive: [9] 100 % of control | [17] 100 % of control | [18] 98 % of control
